The source made the active and inactive calls. The calls are words filed in the database; no cut-off is given here.
Experiments:
[1] = biological target: T1, NEDD8/Cullin-1 (Homo sapiens) (UniProt Q13616+Q15843); test: Inhibition of Nedd8-cullin1 (unknown origin) adduct formation assessed as decrease in cullin1 neddylation at 50 uM preincubated for 10 mins followed by ATP addition and measured after 30 mins by immunoblot analysis; format: protein assay
[2] = biological target: T1, NEDD8/Cullin-1 (Homo sapiens); test: Inhibition of Nedd8-cullin1 adduct formation in human A549 cells assessed as decrease in cullin1 neddylation at 100 uM incubated for 6 to 12 hrs by Western blot analysis; format: cell-based
[3] = biological target: T1, NEDD8/Cullin-1 (Homo sapiens); test: Inhibition of Nedd8-cullin1 adduct formation in human A549 cells assessed as decrease in cullin1 neddylation at 60 to 80 uM measured after 6 hrs by Western blot analysis; format: cell-based
Target sequence in this assay (Q13616 whole entry, looked up): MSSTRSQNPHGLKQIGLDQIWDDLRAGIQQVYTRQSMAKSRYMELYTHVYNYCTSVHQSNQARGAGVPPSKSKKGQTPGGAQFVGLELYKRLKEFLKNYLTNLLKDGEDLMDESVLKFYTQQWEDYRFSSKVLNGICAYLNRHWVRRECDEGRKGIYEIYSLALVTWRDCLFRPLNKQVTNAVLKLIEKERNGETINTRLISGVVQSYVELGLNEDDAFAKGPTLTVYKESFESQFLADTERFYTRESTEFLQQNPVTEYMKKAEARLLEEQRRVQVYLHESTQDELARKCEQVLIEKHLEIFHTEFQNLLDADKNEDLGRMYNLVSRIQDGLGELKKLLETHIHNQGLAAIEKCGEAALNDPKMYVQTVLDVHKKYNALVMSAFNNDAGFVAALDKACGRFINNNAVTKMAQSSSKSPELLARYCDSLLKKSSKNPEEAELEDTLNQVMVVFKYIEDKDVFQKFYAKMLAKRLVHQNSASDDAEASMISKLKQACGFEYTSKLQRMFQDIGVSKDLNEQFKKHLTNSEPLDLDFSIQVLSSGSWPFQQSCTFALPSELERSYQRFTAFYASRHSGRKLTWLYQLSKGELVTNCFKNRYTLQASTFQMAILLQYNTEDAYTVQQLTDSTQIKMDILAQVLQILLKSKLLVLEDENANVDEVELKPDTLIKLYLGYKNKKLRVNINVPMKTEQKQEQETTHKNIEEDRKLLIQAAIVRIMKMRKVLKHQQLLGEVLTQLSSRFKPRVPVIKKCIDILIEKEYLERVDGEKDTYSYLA
Target sequence in this assay (Q15843 whole entry, looked up): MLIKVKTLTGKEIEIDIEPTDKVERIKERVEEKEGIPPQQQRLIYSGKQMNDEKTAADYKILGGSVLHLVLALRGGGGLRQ

[4] = biological target: T1, NEDD8/Cullin-1 (Homo sapiens); test: Inhibition of Nedd8-cullin1 adduct formation in human A549 cells assessed as decrease in cullin1 neddylation at 75 uM measured after 6 hrs by Western blot analysis; format: cell-based
Target sequence in this assay (Q13616 whole entry, looked up): as the sequence (Q13616 whole entry, looked up) above
Target sequence in this assay (Q15843 whole entry, looked up): as the sequence (Q15843 whole entry, looked up) above

[5] = biological target: T1, NEDD8/Cullin-1 (Homo sapiens); test: Inhibition of Nedd8-cullin1 adduct formation in human A549 cells assessed as decrease in cullin1 neddylation at 50 uM measured after 6 hrs by Western blot analysis; format: cell-based
Target sequence in this assay (Q13616 whole entry, looked up): as the sequence (Q13616 whole entry, looked up) above
Target sequence in this assay (Q15843 whole entry, looked up): as the sequence (Q15843 whole entry, looked up) above

NEDD8 activating enzyme = biological target: T2, NEDD8 activating enzyme (Homo sapiens, UniProt Q8TBC4); test: Binding affinity to biotin-labeled GST-tagged NAE (unknown origin) incubated for 1 hr by SPR assay; format: protein-complex assay
T2 sequence (Q8TBC4 whole entry): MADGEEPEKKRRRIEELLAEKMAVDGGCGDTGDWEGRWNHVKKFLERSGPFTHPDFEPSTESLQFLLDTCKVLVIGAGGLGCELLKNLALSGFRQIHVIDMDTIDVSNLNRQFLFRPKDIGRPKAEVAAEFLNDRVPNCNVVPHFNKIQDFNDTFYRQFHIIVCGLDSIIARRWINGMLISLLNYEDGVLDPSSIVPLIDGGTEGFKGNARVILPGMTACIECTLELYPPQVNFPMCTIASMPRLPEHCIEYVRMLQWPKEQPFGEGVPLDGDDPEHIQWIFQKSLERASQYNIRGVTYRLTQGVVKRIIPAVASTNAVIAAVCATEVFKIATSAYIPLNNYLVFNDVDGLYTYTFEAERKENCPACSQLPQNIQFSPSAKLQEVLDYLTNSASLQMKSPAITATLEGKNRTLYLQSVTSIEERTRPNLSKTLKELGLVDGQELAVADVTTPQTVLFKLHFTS
T2 sequence (Q13564 whole entry): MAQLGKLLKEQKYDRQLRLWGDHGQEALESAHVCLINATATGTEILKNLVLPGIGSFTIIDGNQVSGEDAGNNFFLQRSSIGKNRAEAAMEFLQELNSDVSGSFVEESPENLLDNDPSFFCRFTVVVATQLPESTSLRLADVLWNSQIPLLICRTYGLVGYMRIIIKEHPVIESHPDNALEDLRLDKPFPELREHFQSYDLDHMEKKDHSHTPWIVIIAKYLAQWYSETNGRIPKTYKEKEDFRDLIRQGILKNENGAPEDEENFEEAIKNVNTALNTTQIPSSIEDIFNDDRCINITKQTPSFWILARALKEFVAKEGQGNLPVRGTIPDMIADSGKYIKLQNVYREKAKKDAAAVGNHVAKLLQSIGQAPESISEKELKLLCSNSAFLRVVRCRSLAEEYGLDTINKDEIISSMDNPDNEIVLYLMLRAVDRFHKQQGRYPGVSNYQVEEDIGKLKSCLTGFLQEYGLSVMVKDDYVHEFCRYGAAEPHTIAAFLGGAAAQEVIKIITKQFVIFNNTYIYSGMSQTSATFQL

[6] = Toxicity in nude mouse xenografted with human A549 cells assessed as effect on body weight at 30 to 60 mg/kg, ip qd measured every 2 days; format: organism-based; conditions: in vivo, 48 h
HepG2 [7] = test: Antiproliferative activity against human HepG2 cells measured after 72 to 96 hrs by CCK8 assay; format: functional, cell-based
NCI-H1299 [8] = test: Antiproliferative activity against human H1299 cells measured after 48 hrs by CCK8 assay; format: functional, cell-based; conditions: NCI-H1299, 48 h
Huh-7 [9] = test: Antiproliferative activity against human HuH7 cells measured after 48 hrs by CCK8 assay; format: functional, cell-based; conditions: Huh-7, 48 h
MCF7 [10] = test: Antiproliferative activity against human MCF7 cells measured after 48 hrs by CCK8 assay; format: functional, cell-based; conditions: MCF7, 48 h
MKN-45 [11] = test: Antiproliferative activity against human MKN45 cells measured after 72 to 96 hrs by CCK8 assay; format: functional, cell-based
[12] = Toxicity in nude mouse xenografted with human A549 cells assessed as effect on body weight at 60 mg/kg, ip qd measured every 2 days; format: organism-based; conditions: in vivo, 48 h
NCI-H1299 [13] = test: Antiproliferative activity against human H1299 cells measured after 72 to 96 hrs by CCK8 assay; format: functional, cell-based
MKN-45 [14] = test: Antiproliferative activity against human MKN45 cells measured after 48 hrs by CCK8 assay; format: functional, cell-based; conditions: MKN-45, 48 h
EKVX [15] = test: Antiproliferative activity against human EKVX cells measured after 48 hrs by CCK8 assay; format: functional, cell-based
T47D [16] = test: Antiproliferative activity against human T47D cells measured after 48 hrs by CCK8 assay; format: functional, cell-based
A549 [17] = test: Antitumor activity against human A549 cells xenografted in nude mouse assessed as decrease in tumor size at 60 mg/kg, ip qd measured after 22 days; format: functional, organism-based
EKVX [18] = test: Antiproliferative activity against human EKVX cells measured after 72 to 96 hrs by CCK8 assay; format: functional, cell-based
PLC [19] = test: Antiproliferative activity against human PLC cells measured after 48 hrs by CCK8 assay; format: functional, cell-based
PLC [20] = test: Antiproliferative activity against human PLC cells measured after 72 to 96 hrs by CCK8 assay; format: functional, cell-based
Huh-7 [21] = test: Antiproliferative activity against human HuH7 cells measured after 72 to 96 hrs by CCK8 assay; format: functional, cell-based
HepG2 [22] = test: Antiproliferative activity against human HepG2 cells measured after 48 hrs by CCK8 assay; format: functional, cell-based; conditions: HepG2, 48 h
MCF7 [23] = test: Antiproliferative activity against human MCF7 cells measured after 72 to 96 hrs by CCK8 assay; format: functional, cell-based
MGC-803 [24] = test: Antiproliferative activity against human MGC803 cells measured after 72 to 96 hrs by CCK8 assay; format: functional, cell-based
T47D [25] = test: Antiproliferative activity against human T47D cells measured after 72 to 96 hrs by CCK8 assay; format: functional, cell-based
A549 [26] = test: Antitumor activity against human A549 cells xenografted in nude mouse assessed as decrease in tumor weight at 60 mg/kg, ip qd measured after 22 days; format: functional, organism-based
[27] = biological target: T1, NEDD8/Cullin-1 (Homo sapiens); test: Inhibition of Nedd8-cullin1 (unknown origin) adduct formation assessed as decrease in cullin1 neddylation at 10 uM preincubated for 10 mins followed by ATP addition and measured after 30 mins by immunoblot analysis; format: protein assay
Target sequence in this assay (Q13616 whole entry, looked up): as the sequence (Q13616 whole entry, looked up) above
Target sequence in this assay (Q15843 whole entry, looked up): as the sequence (Q15843 whole entry, looked up) above

MGC-803 [28] = test: Antiproliferative activity against human MGC803 cells measured after 48 hrs by CCK8 assay; format: functional, cell-based; conditions: MGC-803, 48 h

CCCCCCCCCCCCCCCC[n+]1ccccc1
inhibition [1]: Active | inhibition [2]: inactive

CN1CCN(CCCN2c3ccccc3Sc3ccc(C(F)(F)F)cc32)CC1
inhibition [1]: Active | inhibition [2]: inactive

Clc1ccc(CCNC2CCN(Cc3ccccc3)CC2)c(Cl)c1
inhibition [3]: Active

O=C1c2c(O)ccc(O)c2C(=O)c2c(NCCNCCO)ccc(NCCNCCO)c21
inhibition [4]: Active | inhibition [5]: inactive

CCOc1nc2cccc(C(=O)OC(C)OC(=O)OC3CCCCC3)c2n1Cc1ccc(-c2ccccc2-c2nnn[nH]2)cc1 (stereo not drawn) [CANDESARTAN CILEXETIL]
Kd (NEDD8 activating enzyme): 195 µM | Activity [6]: Non-Toxic

NS(=O)(=O)OC[C@@H]1C[C@@H](n2ccc3c(N[C@H]4CCc5ccccc54)ncnc32)C[C@@H]1O [PEVONEDISTAT]
IC50 (HepG2 [7]): 300 to 1200 nM | IC50 (NCI-H1299 [8]): > 10 µM | IC50 (Huh-7 [9]): > 10 µM | IC50 (MCF7 [10]): > 10 µM | IC50 (MKN-45 [11]): 300 to 1200 nM | Activity [12]: Non-Toxic | IC50 (NCI-H1299 [13]): 300 to 1200 nM | IC50 (MKN-45 [14]): > 10 µM | IC50 (EKVX [15]): > 10 µM | IC50 (T47D [16]): > 10 µM | Activity (A549 [17]): Active | IC50 (EKVX [18]): 300 to 1200 nM | IC50 (PLC [19]): > 10 µM | IC50 (PLC [20]): 300 to 1200 nM | IC50 (Huh-7 [21]): 300 to 1200 nM | IC50 (HepG2 [22]): > 10 µM | IC50 (MCF7 [23]): 300 to 1200 nM | IC50 (MGC-803 [24]): 300 to 1200 nM | IC50 (T47D [25]): 300 to 1200 nM | Activity (A549 [26]): Active | inhibition [27]: Active | IC50 (MGC-803 [28]): > 10 µM

BISMUTH SUBCITRATE POTASSIUM
inhibition [1]: Active | inhibition [2]: inactive
